{"source": "paper PMC8910447", "about": "(International Journal of Molecular Sciences, 2022)", "key": {"EBOVpp": {"system": "EBOVpp", "assay": "microbe, parasite or virus in culture", "assay_type": "cell-based, Zaire ebolavirus"}, "in vitro": {"assay": "in vitro", "settings": "human"}, "EBOV-GP": {"target": "EBOV-GP (Zaire ebolavirus, UniProt Q05320)", "sequence (Q05320 33-676 limits assumed)": "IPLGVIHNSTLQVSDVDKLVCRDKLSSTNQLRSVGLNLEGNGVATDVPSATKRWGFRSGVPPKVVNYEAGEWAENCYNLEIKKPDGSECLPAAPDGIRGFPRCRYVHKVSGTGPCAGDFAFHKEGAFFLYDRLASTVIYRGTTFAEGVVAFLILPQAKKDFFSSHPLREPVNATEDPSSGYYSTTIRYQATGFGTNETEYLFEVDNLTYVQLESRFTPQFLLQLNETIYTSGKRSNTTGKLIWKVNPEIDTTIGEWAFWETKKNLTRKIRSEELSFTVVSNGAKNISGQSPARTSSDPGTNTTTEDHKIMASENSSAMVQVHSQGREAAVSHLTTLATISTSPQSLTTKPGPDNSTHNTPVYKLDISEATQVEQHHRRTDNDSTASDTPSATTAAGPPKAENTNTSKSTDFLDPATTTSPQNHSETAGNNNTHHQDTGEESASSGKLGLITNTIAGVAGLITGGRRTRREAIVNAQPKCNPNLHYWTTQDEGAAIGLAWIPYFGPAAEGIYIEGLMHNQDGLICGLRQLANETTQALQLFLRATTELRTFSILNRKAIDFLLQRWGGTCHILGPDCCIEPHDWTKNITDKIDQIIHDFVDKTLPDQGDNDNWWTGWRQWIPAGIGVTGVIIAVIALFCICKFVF", "assay": "biochemical", "assay_type": "binding, Ebola virus"}, "[1]": {"system": "pCMV C-His (negative control)", "assay_type": "binding"}, "[2]": {"system": "infectious recombinant EBOV", "settings": "read-out: IC50 against infectious recombinant EBOV infection; cited from earlier work"}, "[3]": {"settings": "Zaire ebolavirus, A549, read-out: IC50 (M) against infection with EBOVpp"}, "[4]": {"settings": "Zaire ebolavirus, A549, n = 3, read-out: EBOVpp IC50"}}, "note": "Like-named read-outs stand apart in the source and are kept apart here.", "data": [{"smiles": "O=C(O[C@@H]1Cc2c(O)cc(O)cc2O[C@@H]1c1ccc(O)c(O)c1)c1ccccc1", "note": "[13b, (2R,3R)-2-(3,4-Dihydroxyphenyl)-5,7-dihydroxychroman-3-yl benzoate]", "values": [{"measurement": "inhibition at 10 µM", "setting": "EBOVpp; Zaire ebolavirus, A549, read-out: inhibitory effect against EBOVpp infection", "value": "> 60", "unit": "%"}]}, {"smiles": "Oc1cc(O)c2c(c1)O[C@H](c1ccc(O)c(O)c1)[C@@H](O)C2", "note": "[(+) Catechin (4), (+)-catechin]", "values": [{"measurement": "IC50", "setting": "EBOVpp; [3]", "value": "3.6e-05", "unit": "M"}, {"measurement": "IC50", "setting": "EBOVpp; [4]", "value": "3.6e-05", "unit": "M"}, {"measurement": "CC50", "setting": "in vitro", "value": "> 34.5", "unit": "µM"}]}, {"smiles": "Oc1cc(O)c2c(c1)O[C@H](c1ccc(O)c(O)c1)[C@H](O)C2", "note": "[(−) Epicatechin (5), (−)-epicatechin]", "values": [{"measurement": "Selectivity Index (SI)", "setting": "EBOVpp", "value": ">7.79"}, {"measurement": "IC50", "setting": "EBOVpp; [3]", "value": "2.21e-05", "unit": "M"}, {"measurement": "IC50", "setting": "EBOVpp; [4]", "value": "2.21e-05", "unit": "M"}, {"measurement": "CC50", "setting": "in vitro", "value": "> 172", "unit": "µM"}]}, {"smiles": "O=C(O[C@@H]1Cc2c(O)cc(O)cc2O[C@@H]1c1ccc(O)c(O)c1)c1cc(O)c(O)c(O)c1", "note": "[ECG (9), epicatechin 3-O-gallate]", "values": [{"measurement": "Selectivity Index (SI)", "setting": "EBOVpp", "value": ">7.68"}, {"measurement": "IC50", "setting": "EBOVpp; [3]", "value": "2.95e-06", "unit": "M"}, {"measurement": "IC50", "setting": "EBOVpp; [4]", "value": "2.95e-06", "unit": "M"}, {"measurement": "CC50", "setting": "in vitro", "value": "> 22.6", "unit": "µM"}]}, {"smiles": "O=C(O[C@@H]1Cc2c(O)cc(O)cc2O[C@@H]1c1cc(O)c(O)c(O)c1)c1cc(O)c(O)c(O)c1", "note": "[EGCG (8), (−)-epigallocatechin-3-O-gallate]", "values": [{"measurement": "Selectivity Index (SI)", "setting": "EBOVpp", "value": ">7.81"}, {"measurement": "IC50", "setting": "EBOVpp; [3]", "value": "2.8e-06", "unit": "M"}, {"measurement": "IC50", "setting": "EBOVpp; [4]", "value": "2.8e-06", "unit": "M"}, {"measurement": "CC50", "setting": "in vitro", "value": "> 21.8", "unit": "µM"}]}, {"smiles": "Oc1cc(O)c2c(c1)O[C@H](c1cc(O)c(O)c(O)c1)[C@H](O)C2", "note": "[Epigallocatechin (11), epigallocatechin]", "values": [{"measurement": "Selectivity Index (SI)", "setting": "EBOVpp", "value": ">29.5"}, {"measurement": "IC50", "setting": "EBOVpp; [3]", "value": "5.53e-06", "unit": "M"}, {"measurement": "IC50", "setting": "EBOVpp; [4]", "value": "5.53e-06", "unit": "M"}, {"measurement": "CC50", "setting": "in vitro", "value": "> 163", "unit": "µM"}]}, {"smiles": "Oc1cc(O)c2c(c1)O[C@H](c1cc(O)c(O)c(O)c1)[C@@H](O)C2", "note": "[Gallocatechin (10), gallocatechin]", "values": [{"measurement": "Selectivity Index (SI)", "setting": "EBOVpp", "value": ">13.1"}, {"measurement": "IC50", "setting": "EBOVpp; [3]", "value": "1.24e-05", "unit": "M"}, {"measurement": "IC50", "setting": "EBOVpp; [4]", "value": "1.24e-05", "unit": "M"}, {"measurement": "CC50", "setting": "in vitro", "value": "> 163", "unit": "µM"}]}, {"smiles": "Oc1cc(O)c2c(c1)O[C@H](c1ccc(O)c(O)c1)[C@H](O)[C@H]2c1c(O)cc(O)c2c1O[C@H](c1ccc(O)c(O)c1)[C@@H](O)C2", "note": "[Procyanidin B1 (6), Procyanidin B1]", "values": [{"measurement": "Selectivity Index (SI)", "setting": "EBOVpp", "value": ">91.1"}, {"measurement": "IC50", "setting": "EBOVpp; [3]", "value": "9.13e-07", "unit": "M"}, {"measurement": "IC50", "setting": "EBOVpp; [4]", "value": "9.5e-07", "unit": "M"}, {"measurement": "CC50", "setting": "in vitro", "value": "> 86.5", "unit": "µM"}]}, {"smiles": "Oc1cc(O)c2c(c1)O[C@H](c1ccc(O)c(O)c1)[C@H](O)[C@H]2c1c(O)cc(O)c2c1O[C@H](c1ccc(O)c(O)c1)[C@H](O)C2", "note": "[Procyanidin B2 (1), procyanidin B2]", "values": [{"measurement": "Selectivity Index (SI)", "setting": "EBOVpp", "value": ">104"}, {"measurement": "IC50", "setting": "EBOVpp; [3]", "value": "8.29e-07", "unit": "M"}, {"measurement": "IC50", "setting": "EBOVpp; [4]", "value": "8.3e-07", "unit": "M"}, {"measurement": "Kd", "setting": "EBOV-GP", "value": 13, "unit": "µM"}, {"measurement": "CC50", "setting": "in vitro", "value": "> 86.5", "unit": "µM"}, {"measurement": "binding curve with the negative control", "setting": "[1]", "value": "could not produce a binding curve"}]}, {"smiles": "Oc1cc(O)c2c(c1)O[C@H](c1ccc(O)c(O)c1)[C@@H](O)[C@@H]2c1c(O)cc(O)c2c1O[C@H](c1ccc(O)c(O)c1)[C@@H](O)C2", "note": "[Procyanidin B3 (7), Procyanidin B3]", "values": [{"measurement": "Selectivity Index (SI)", "setting": "EBOVpp", "value": ">57.1"}, {"measurement": "IC50", "setting": "EBOVpp; [4]", "value": "1.52e-06", "unit": "M"}, {"measurement": "CC50", "setting": "in vitro", "value": "> 86.5", "unit": "µM"}]}, {"smiles": "Oc1cc(O)c2c(c1)O[C@H](c1ccc(O)c(O)c1)[C@H](O)[C@H]2c1c(O)cc(O)c2c1O[C@H](c1ccc(O)c(O)c1)[C@H](O)[C@H]2c1c(O)cc(O)c2c1O[C@H](c1ccc(O)c(O)c1)[C@H](O)C2", "note": "[Procyanidin C1 (2), procyanidin C1]", "values": [{"measurement": "IC50", "setting": "EBOVpp; [4]", "value": "> 1.15e-05", "unit": "M"}, {"measurement": "CC50", "setting": "in vitro", "value": "> 11.5", "unit": "µM"}]}, {"smiles": "Oc1cc(O)c2c(c1)OC(c1ccc(O)c(O)c1)C(O)C2c1c(O)cc(O)c2c1OC(c1ccc(O)c(O)c1)C(O)C2c1c(O)cc(O)c2c1OC(c1ccc(O)c(O)c1)C(O)C2c1c(O)cc(O)c2c1OC(c1ccc(O)c(O)c1)C(O)C2", "note": "(stereo not drawn) [Procyanidin tetramer (3), epicatechin-(4β→8)-epicatechin-(4β→8)-epicatechin-(4β→8)-epicatechin]", "values": [{"measurement": "IC50", "setting": "EBOVpp; [4]", "value": "> 1.15e-05", "unit": "M"}, {"measurement": "CC50", "setting": "in vitro", "value": "> 11.5", "unit": "µM"}]}, {"smiles": "CN(C)CCOc1ccc(/C(=C(/CCCl)c2ccccc2)c2ccccc2)cc1", "note": "[Toremifene, toremifene, reference compound]", "values": [{"measurement": "IC50", "setting": "EBOVpp; [4]", "value": "1.7e-07", "unit": "M"}, {"measurement": "CC50", "setting": "in vitro", "value": 2.92, "unit": "µM"}, {"measurement": "binding curve with the negative control", "setting": "[1]", "value": "could not produce a binding curve"}]}, {"smiles": "O=C(O)c1cc(O)c(O)c(O)c1", "note": "[gallic acid]", "values": [{"measurement": "IC50", "setting": "[2]", "value": 25.4, "unit": "µM"}]}]}
